Measurements: patent US20090281040A1, “Methods For Treating Endoplasmic Reticulum (ER) Stress Disorders” (priority 2008, published 2009)
Where a SMILES comes first, the peptide text is derived from it. The star is where a group is joined. Cbz = O=C(OCc1ccccc1)*

What was measured:
AATF mRNA [1] = test: AATF mRNA by real-time PCR in wild-type, Ire1α−/− and Perk−/− mouse embryonic fibroblasts; type: cell-based; details: for attenuation of the induction of AATF: Ire1α−/− cells versus wild-type; for induction of AATF: Perk−/− mouse embryonic fibroblasts versus wild-type
Method: (§1) Real-time polymerase chain reaction. Total RNA was isolated from cells using RNeasy Mini Kit (Qiagen) and reverse transcribed using 1 μg of total RNA from cells with Oligo-dT primer. For the thermal cycle reaction, the iQ5 system (BioRad, Hercules, Calif.) was used at 95° C. for 10 min, 40 cycles at 95° C. for 10 sec, and at 55° C. for 30 sec.
(§2) The relative amount for each transcript was calculated by a standard curve of cycle thresholds for serial dilutions of cDNA samples and normalized to the amount of actin. The polymerase chain reaction (PCR) was done in triplicate for each sample, after which all experiments were repeated twice. The following sets of primers and Power SYBR Green PCR Master Mix (Applied Biosystems, Foster City, Calif.) were used for real-time PCR:
The pathway by which AATF expression is regulated was investigated. IRE 1 and PERK are ER-resident protein kinases and regulators of the UPR. The expression levels of AATF were measured by real-time PCR in Ire1α^−/− and Perk^−/− mouse embryonic fibroblasts under ER stress conditions. […] To confirm this, Perk^−/− mouse embryonic fibroblasts were transfected with PERK expression plasmid, then AATF gene expression was measured. Chop expression was also measured as a control. PERK expression could restore both AATF and Chop expression (FIG. 2D).

Chop mRNA = Chop mRNA by real-time PCR in wild-type and Perk−/− mouse embryonic fibroblasts; type: cell-based; design: dose or concentration left out as unconfirmed; details: Salubrinal, 16 hr
Method: as §1, §2
It is established that PERK-mediated eIF2α phosphorylation has role in the up-regulation of its target genes (see, e.g., Harding, H. P., et al., Mol Cell 6, 1099-1108 (2000); Harding et al., Nature 397, 271-274 (1999)). Whether eIF2α phosphorylation could increase AATF expression was determined. […]

eIF2α phosphorylation = eIF2α phosphorylation immunoblot in mouse embryonic fibroblasts; type: cell-based; design: dose or concentration left out as unconfirmed; details: 16 hr
Method: (§3) Immunoblotting. Cells were lysed for 15 min on ice at 4° C. in ice-cold M-PER buffer (PIERCE, Rockford, Ill.) containing protease inhibitors. The lysates were then cleared by centrifuging the cells at 13,000 g. Lysates were normalized for total protein, separated by SDS-PAGE (15% gel or 5%-20% gradient gel), and transferred onto a polyvinylidene difluoride membrane. To detect human AATF protein, anti-AATF antibody from Bethyl (Montgomery, Tex.) was used. To detect rat AATF protein, a rabbit anti-AATF antibody generated using a peptide, RPREADPEADPEEATR, was used. […]
It is established that PERK-mediated eIF2α phosphorylation has role in the up-regulation of its target genes (see, e.g., Harding, H. P., et al., Mol Cell 6, 1099-1108 (2000); Harding et al., Nature 397, 271-274 (1999)). Whether eIF2α phosphorylation could increase AATF expression was determined. Wild-type and Perk^−/− mouse fibroblasts were treated with salubrinal, a compound that increases eIF2α phosphorylation (see Boyce, M., et al., Science (New York, N.Y. 307, 935-939 (2005)), then AATF expression was measured, with Chop expression as a control. AATF expression, as well as Chop expression, was increased by salubrinal treatment in both wild-type and Perk^−/− mouse embryonic fibroblasts (FIG. 2C, upper panel). Immunoblot confirmed that eIF2α phosphorylation levels were increased by salubrinal (FIG. 2C, lower panel).

AATF mRNA [2] = test: AATF mRNA expression by real-time PCR in cells treated with ER stress inducers; type: cell-based, rat; mouse; details: for AATF mRNA expression: INS-1 832/13, neuro2A cells and mouse embryonic fibroblasts, 16 hr, TM 5 μg/ml, Tg 1 μM, MG132 2 μM, STR 0.05 and 0.01 μM
Method: Cell culture and transfection of small interfering RNA. Rat insulinoma cells, INS-1 832/13, were a gift from Dr. Christopher Newgard (Duke University Medical Center). These cells were cultured in RPMI 1640 supplemented with 10% FBS. Mouse embryonic fibroblasts, COS7 cells, and Neuro2a cells were maintained in DMEM with 10% fetal bovine serum. Human neuroblastoma cells, SH-SY5Y cells, were cultured in DMEM/F12 with 10% fetal bovine serum.
as §1
as §2, with “PCR: […]” for “PCR:”

ATF6 = ATF6 protein level immunoblot in COS7 cells expressing ATF6-HA and WFS1-FLAG; type: cell-based; details: MG132 15 μM, 3 hr
Method: To investigate whether the decrease in ATF6 protein level is proteosome-dependent, COS7 cells expressing ATF6-HA or ATF6-HA and WFS1-FLAG were either untreated (UT) or treated with the proteosome inhibitor MG132 (15 μM) for 3 hr. Lysates were immunoblotted with anti-HA, anti-FLAG, and anti-actin antibodies.

Akt = test: Akt, Akt1 and phosphorylated Akt immunoblot in INS-1 832/13 cells; type: cell-based, rat; details: INS1 832/13 cells, Tg 1 μM
Method: as §3
It has been proposed that phosphorylation of Akt is important in protecting cells from apoptosis (Srinivasan, S., et al., Diabetes 54, 968-975 (2005). As shown in FIG. 4C (right panel), phosphorylation level of Akt was increased up to 8 hr after treatment, but decreased at 24 hr. To study the relationship between AATF suppression and Akt phosphorylation, AATF expression was suppressed using siRNA directed against AATF in INS-1 832/13 cells and the cells were treated with thapsigargin for 0, 3, and 8 hr, then Akt expression and Akt phosphorylation levels were measured by immunoblot. Both Akt expression and Akt phosphorylation levels were decreased by AATF siRNA (FIG. 4D). […] INS-1 832/13 cells were infected with the virus and Akt1 expression levels were measured.

AATF = AATF immunoblot of cytoplasmic and nuclear extracts from INS-1 832/13 cells; type: cell-based, rat; details: Tg 1 μM
Method: Immunoblotting. Cells were lysed for 15 min on ice at 4° C. in ice-cold M-PER buffer (PIERCE, Rockford, Ill.) containing protease inhibitors. The lysates were then cleared by centrifuging the cells at 13,000 g. Lysates were normalized for total protein, separated by SDS-PAGE (15% gel or 5%-20% gradient gel), and transferred onto a polyvinylidene difluoride membrane. To detect human AATF protein, anti-AATF antibody from Bethyl (Montgomery, Tex.) was used. To detect rat AATF protein, a rabbit anti-AATF antibody generated using a peptide, RPREADPEADPEEATR, was used. Anti-actin and anti-myc (9E10) antibodies were purchased from Sigma (St. Louis, Mo.); anti-eIF2α was purchased from Santa Cruz Biotechnology (Santa Cruz, Calif.); anti-phospho-eIF2α, anti-Akt, anti-Akt1, anti-phospho-Akt, anti-Creb, anti-tubulin, and anti-caspase-3 antibodies were purchased from Cell Signaling (Danvers, Mass.).

Akt1 mRNA = Akt1 mRNA expression by real-time PCR; type: cell-based, rat; mouse; details: Tg 1 μM
Method: as §1, §2
Whether Akt1 expression is increased by ER stress was examined. The expression levels of Akt1 mRNA were measured in the presence of ER stress in INS-1 832/13, neuro2A, and mouse embryonic fibroblasts.

WFS1-ATF6 complex = test: WFS1-ATF6 co-immunoprecipitation in INS-1 832/13 cells; type: cell-based, rat
Method: Both WFS1 and ATF6 are transmembrane proteins localized to the ER. The association of WFS1 with ATF6 in INS-1 832/13 cells was examined. An anti-WFS1 antibody was used to immunoprecipitate (IP) WFS1 from INS-1 832/13 cells untreated (UT) or treated with the ER stress inducer DTT (1 mM) for 0.5 hr, 1.5 hr, or 3 hr. Immunoprecipitates were then subject to immunoblot (IB) analysis using anti-ATF6, anti-WFS1, and anti-actin antibodies. […] To confirm that the interaction between WFS1 and ATF6 is recovered post-stress, an anti-WFS1 antibody was used to immunoprecipiate (IP) WFS1 from INS-1 832/13 cells untreated (UT) or treated with the ER stress inducer DTT (1 mM) for 2 hr. The cells were then chased in normal media for 0 hr and 3 hr. Immunoprecipitates were subject to immunoblot (IB) analysis using anti-ATF6, anti-WFS1, and anti-actin antibodies. The relative amount of ATF6 protein was quantified using ImageJ software.

O=C(/C=C/c1ccccc1)NC(NC(=S)Nc1cccc2cccnc12)C(Cl)(Cl)Cl (centres unmarked) [salubrinal]
AATF expression (AATF mRNA [1]; wild-type and Perk−/− mouse embryonic fibroblasts, Salubrinal 75 nM, 16 hr): increased
Chop expression (Chop mRNA): increased
eIF2α phosphorylation levels (eIF2α phosphorylation): increased

tunicamycin
attenuation of the induction of AATF (AATF mRNA [1]): not
induction of AATF (AATF mRNA [1]): attenuated
AATF mRNA expression (AATF mRNA [2]): up-regulated

CC(C)C[C@@H](C=O)NC(=O)[C@H](CC(C)C)NC(=O)[C@H](CC(C)C)NC(=O)OCc1ccccc1 [MG132] (Cbz-Leu-Leu-Leu-aldehyde)
ATF6 protein levels (ATF6): almost full recovery
AATF mRNA expression (AATF mRNA [2]): up-regulated

C/C=C(/C)C(=O)O[C@H]1C(C)=C2[C@H]([C@@H]1OC(=O)CCCCCCC)[C@@](C)(OC(C)=O)C[C@H](OC(=O)CCC)[C@@]1(O)[C@H]2OC(=O)[C@@]1(C)O [thapsigargin]
phosphorylation level of Akt (Akt; at 24 hr): decreased
phosphorylation level of Akt (Akt; up to 8 hr after treatment): increased
attenuation of the induction of AATF (AATF mRNA [1]): not
induction of AATF (AATF mRNA [1]): attenuated
AATF protein expression in cytoplasmic and nuclear extracts (AATF): up-regulated
time of peak Akt1 mRNA expression during ER stress (Akt1 mRNA; INS1 832/13 cells): 24 h
AATF mRNA expression (AATF mRNA [2]): up-regulated
AATF mRNA expression, time course (AATF mRNA [2]; INS-1 832/13 cells, Tg 0.5 μM, indicated times): continued to increase up to 24 hr

O[C@@H](CS)[C@@H](O)CS [DTT]
interaction of ATF6 and WFS1 post-stress (WFS1-ATF6 complex; DTT 1 mM 2 hr, then 3 hour chase in normal media): began to recover
dissociation of ATF6 from WFS1 (WFS1-ATF6 complex; DTT 1 mM, 3 hours post-treatment, time-dependent): almost complete dissociation

CN[C@@H]1C[C@H]2O[C@@](C)([C@@H]1OC)n1c3ccccc3c3c4c(c5c6ccccc6n2c5c31)C(=O)NC4 [staurosporin]
increase of Akt1 mRNA expression (Akt1 mRNA; INS-1 832/13, neuro2A and mouse embryonic fibroblasts, 16 hr, TM 5 μg/ml, MG132 2 μM, STR 0.05 and 0.01 μM): not
AATF mRNA expression (AATF mRNA [2]): not
